Our source for the IC50 values is patent publication US8288371B2, “Ortho pyrrolidine, benzyl-substituted heterocycle CCR1 antagonists for autoimmune diseases and inflammation” (Pharmacopeia, LLC, priority 2007, dated 2012).

The experiment concerns the target T1, human CCR1 (Homo sapiens, UniProt P32246).
T1 sequence (P32246 1-355): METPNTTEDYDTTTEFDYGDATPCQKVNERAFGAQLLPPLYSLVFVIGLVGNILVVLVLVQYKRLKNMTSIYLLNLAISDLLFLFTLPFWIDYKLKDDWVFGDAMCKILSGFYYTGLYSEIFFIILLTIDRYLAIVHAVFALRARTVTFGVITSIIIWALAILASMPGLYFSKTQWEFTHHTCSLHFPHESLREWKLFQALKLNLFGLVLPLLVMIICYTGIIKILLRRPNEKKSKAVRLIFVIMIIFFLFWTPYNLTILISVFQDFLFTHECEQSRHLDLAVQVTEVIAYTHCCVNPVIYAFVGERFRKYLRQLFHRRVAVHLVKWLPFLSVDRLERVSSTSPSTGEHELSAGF
The experiment in a line: CCR1 binding protocol (SPA, [125I]-MIP-1α displacement). Particulars: cell membrane expressing human CCR1, 0.1 nM [125I]-MIP-1α, 4 hours at ambient temperature; read-out: Relative potency (IC50). On the procedure:
The following protocol was used to test compounds for CCR1 binding. A mixture, including scintillation proximity assay (SPA) beads and cell membrane expressing human CCR1, was prepared in assay buffer (130 mM NaCl+5 mM KCl+1 mM MnCl+50 mM Tris HCl at pH 7.4+0.1% bovine serum albumin (BSA)) at the ratio of 50 μg/ml membrane to 10 mg/ml SPA beads. 10 μl of the mixture was transferred to each well of a 384-well assay plate yielding a final concentration for the membrane and SPA beads of 0.5 μg/well and 100 μg/well, respectively
To generate different concentrations of the test compound, compound stocks were prepared using 10 step ½ log dilutions with a high concentration of 10 mM in DMSO and the lowest concentration being DMSO only without compound. An intermediate 40× dilution was then prepared in the assay buffer. The compound was then transferred at 10 μl/well to the assay plate. 0.5 nM [^125 I]-labeled macrophage inflammatory protein-1α (MIP-1α, an endogenous CCR1 ligand) in the assay buffer was transferred to the assay plate at 5 μl/well, for a final ligand concentration of 0.1 nM. The assay plate was then centrifuged at 2500 rpm for 2 minutes and incubated for 4 hours at ambient temperature, at which time the raw data was recorded using microbeta. The IC50 was then calculated using Graphpad Prism.
In general, IC50 refers to the concentration at which inhibition is half-maximal. With `Cc1nnc([C@H]2CCCN2C(=O)Cc2cccc(Cl)c2)n1Cc1ccc(Cl)cc1` [Compound 497], the IC50 was 50 to 500 nM. In the case of `Cc1c(NC(=O)N2CCC[C@@H]2c2nnc(C)n2Cc2ccc(Cl)cc2)cccc1C(N)=O` [Compound 247], the IC50 was in the range of 500 to 5000 nM. The same measure for `Cc1cc(C)c(NC(=O)N2CCC[C@@H]2c2nnc(C)n2Cc2ccc(Cl)cc2)c(C)n1` [Compound 296]: < 50 nM.

As to `COC(=O)c1ccc(Cl)c(NC(=O)N2CCC[C@@H]2c2nnc(C)n2Cc2ccc(Cl)cc2)c1` [Compound 286], the half-maximal inhibitory concentration (IC50) is < 50 nM. Next, `Cc1c(NC(=O)N2CCC[C@@H]2c2nnc(C)n2Cc2ccc(Cl)cc2)ccc(C#N)c1C(F)(F)F` [Compound 527]: < 50 nM. The same measure for `Cc1nnc([C@H]2CCCN2C(=O)N[C@@H](C)c2ccc(Cl)c(Cl)c2)n1Cc1ccc(Cl)cc1` [Compound 168]: < 50 nM; for `Cc1noc(-c2ccccc2)c1NC(=O)N1CCC[C@@H]1c1nnc(C)n1Cc1ccc(Cl)cc1` [Compound 123]: < 50 nM. In the case of `Cc1nc(C(F)(F)F)ccc1NC(=O)N1CCC[C@@H]1c1ncc(C)n1Cc1ccc(Cl)cc1` [Compound 566], the IC50 fell in the range of 50 to 500 nM. On to `O=C(Nc1ccc(C(F)(F)F)cc1)N1CCC[C@@H]1c1nccn1Cc1ccccc1` [Compound 47], for which the IC50 lay in the range of 500 to 5000 nM. Next, `COC1C[C@H](c2nnc(C)n2Cc2ccc(Cl)cc2)N(C(=O)N[C@H]2CCOc3cc(C(F)(F)F)ccc32)C1` (stereo partly shown) [Compound 543]: 50 to 500 nM. The same measure for `Cc1nnc([C@H]2CCCN2C(=O)NC2COCc3c(F)cccc32)n1Cc1ccc(Cl)cc1` (stereo partly shown) [Compound 142]: 50 to 500 nM; for `COC(=O)c1cccc(C)c1NC(=O)N1CCC[C@@H]1c1nnc(C)n1Cc1ccc(Cl)cc1` [Compound 217]: < 50 nM. The same measure for `CC(=O)N1CCC(CNC(=O)N2CCC[C@@H]2c2nnc(C)n2Cc2ccc(Cl)cc2)C1` (stereo partly shown) [Compound 592]: 50 to 500 nM. As for `COCc1nnc([C@H]2CCCN2C(=O)N[C@@H](C)c2ccc(Cl)cc2)n1Cc1ccc(Cl)cc1` [Compound 463], the half-inhibitory concentration (IC50) fell in the range of 50 to 500 nM. The same measure for `CC[C@H](NC(=O)N1CCC[C@@H]1c1nccn1Cc1ccc(Cl)cc1)c1ccc(C(F)(F)F)cc1` [Compound 44]: 50 to 500 nM. `Cc1nnc([C@H]2CCCN2C(=O)NC2CCCc3cccc(Cl)c32)n1Cc1ccc(Cl)cc1` (stereo partly shown) [Compound 267]: the IC50 was 50 to 500 nM. As for `Cc1ncc(NC(=O)N2CCC[C@@H]2c2nnc(C)n2Cc2ccc(Cl)cc2)c(C)n1` [Compound 415], the IC50 was < 50 nM. The same measure for `Cc1cc(C)c(NC(=O)N2CCC[C@@H]2c2nnc(C)n2Cc2ccc(Cl)cc2)c(C(N)=O)c1` [Compound 206]: < 50 nM. With `Cc1ccnc(C)c1NC(=O)N1CCC[C@@H]1c1nnc(C)n1Cc1ccc(Cl)cc1` [Compound 316], the IC50 was < 50 nM. As for `Cc1nnc([C@H]2C[C@@H](O)CN2C(=O)NC(c2ccccc2)c2ccccc2)n1Cc1ccc(Cl)cc1` [Compound 389], the IC50 was 50 to 500 nM. Regarding `Cc1nnc([C@H]2CCCN2C(=O)Nc2cc(-c3ccc(Cl)cc3)nn2C)n1Cc1ccc(Cl)cc1` [Compound 595], the IC50 was in the range of 50 to 500 nM. For `Cc1nnc([C@H]2CCCN2/C(=N\C#N)N[C@@H](C)c2cc3ccccc3o2)n1Cc1ccc(Cl)cc1` [Compound 195], the IC50 was < 50 nM.

On to `Cc1nnc([C@H]2CCCN2C(=O)N[C@@H](C)C2CCCCC2)n1Cc1ccc(Cl)cc1` [Compound 184], for which the IC50 lay in the range of 50 to 500 nM. Next, `O=C(N[C@H]1CCOc2cc(C(F)(F)F)ccc21)N1CCC[C@@H]1c1ncnn1Cc1ccc(Cl)cc1` [Compound 57]: < 50 nM; `Cc1noc(C)c1N/C(=N/C#N)N1CCC[C@@H]1c1nnc(C)n1Cc1ccc(Cl)cc1` [Compound 319]: 50 to 500 nM; `COCc1nnc([C@H]2CCCN2C(=O)NCc2ccc(Cl)cc2Cl)n1Cc1ccc(Cl)cc1` [Compound 462]: 50 to 500 nM. As for `CC[C@H](NC(=O)N1CCC[C@@H]1c1nncn1Cc1ccc(Cl)cc1)c1c(C)cc(C(F)(F)F)cc1C` [Compound 120], the IC50 was < 50 nM. Next, `Cc1nnc([C@H]2CCCN2C(=O)Nc2ccc3c(c2)N(C)C(=O)CO3)n1C1(c2ccc(Cl)cc2)CC1` [Compound 327]: 50 to 500 nM. Regarding `Cc1nnc([C@H]2CCCN2C(=O)Nc2cccc(-c3ccn(C)n3)c2)n1Cc1ccc(Cl)cc1` [Compound 621], the IC50 is 50 to 500 nM. As for `Cc1nnc([C@H]2CCCN2C(=O)Nc2ccc(Cl)cc2C#N)n1Cc1ccc(Cl)cc1` [Compound 417], the IC50 is < 50 nM. Regarding `Cc1nnc([C@H]2CCCN2C(=O)N[C@H]2CCOc3c(F)ccc(F)c32)n1Cc1ccc(Cl)cc1` [Compound 161], the IC50 was in the range of 50 to 500 nM. Take `CCc1nnc([C@H]2CCCN2C(=O)Nc2ccc(C(F)(F)F)nc2C)n1Cc1ccc(Cl)cc1` [Compound 584]: the IC50 is < 50 nM.

`Cc1nnc([C@H]2CCCN2C(=O)NCc2cccc(C(F)(F)F)c2)n1Cc1ccc(Cl)cc1` [Compound 145]: the IC50 was in the range of 50 to 500 nM. As to `Cc1cc(Cl)cc(C)c1NC(=O)N1CCC[C@@H]1c1ncnn1Cc1ccc(Cl)cc1` [Compound 66], the IC50 is 50 to 500 nM.

As to `Cc1nnc([C@H]2CCCN2C(=O)C[C@H](C)c2ccccc2)n1Cc1ccc(Cl)cc1` [Compound 479], the IC50 is 50 to 500 nM.

For the compound `Cc1nnc(C2C3CC3CN2C(=O)Nc2ccc(Cl)cc2F)n1Cc1ccc(Cl)cc1` (stereo not shown) [Compound 545], the IC50 fell in the range of 50 to 500 nM. The same measure for `Cc1nnc([C@H]2CCCN2C(=O)Nc2ccc(Br)cc2C(F)(F)F)n1Cc1ccc(Cl)cc1` [Compound 197]: < 50 nM; for `CN1C(=O)COc2ccc(NC(=O)N3CCC[C@@H]3c3ncncc3Cc3ccc(Cl)cc3)cc21` [Compound 17]: 50 to 500 nM. The same measure for `Cc1cc(NC(=O)N2CCC[C@@H]2c2nnc(C)n2Cc2ccc(Cl)cc2)n(-c2ccccc2)n1` [Compound 341]: < 50 nM; for `CC[C@H](NC(=O)N1CCC[C@@H]1c1nnc(C)n1Cc1ccc(Cl)cc1)c1nc2ccccc2o1` [Compound 516]: 500 to 5000 nM. With `Cc1nnc([C@H]2CCCN2C(=O)N[C@H]2CCCOc3ccc(Cl)cc32)n1Cc1ccc(Cl)cc1` [Compound 156], the IC50 fell in the range of 50 to 500 nM. As to `Cc1nnc([C@H]2CCCN2C(=O)NC2(c3ccccc3)CC2)n1Cc1ccc(F)cc1` [Compound 399], the IC50 lay within 50 to 500 nM. Take `Cc1cc(C)c(NC(=O)N2CCC[C@@H]2c2nnc(C)n2Cc2ccc(Cl)cc2)c(C(=O)O)c1` [Compound 254]: the IC50 is 500 to 5000 nM.

Take `Cc1nnc([C@H]2CC(=O)CN2C(=O)N[C@H]2CCOc3cc(C(F)(F)F)ccc32)n1Cc1ccc(Cl)cc1` [Compound 506]: the IC50 was < 50 nM. The same measure for `Cc1nnc([C@H]2CCCN2C(=O)Nc2ccc(Cl)cc2F)n1[C@@H](C)c1ccc(Cl)cc1` [Compound 342]: 500 to 5000 nM.

Regarding `Cc1ccc(NC(=O)N2CCC[C@@H]2c2nnc(C)n2Cc2ccc(Cl)cc2)c(C(=O)N(C)C)c1` [Compound 295], the half-inhibitory concentration (IC50) is 50 to 500 nM. For `Cc1nnc([C@H]2CCCN2C(=O)NC2CCc3cc(Cl)ccc32)n1Cc1ccc(Cl)cc1` (stereo partly shown) [Compound 132], the IC50 is < 50 nM.

In the case of `CCOC1CCC(NC(=O)N2CCC[C@@H]2c2nnc(C)n2Cc2ccc(Cl)cc2)CC1` (stereo partly shown) [Compound 305], the IC50 lay in the range of 500 to 5000 nM. The same measure for `Cc1nnc([C@H]2CCCN2C(=O)NC2CCCC2)n1Cc1ccc(Cl)cc1` [Compound 246]: 500 to 5000 nM.

As to `Cc1nc(C(F)(F)F)ccc1NC(=O)N1CCC[C@@H]1c1nncn1Cc1ccc(Cl)cc1` [Compound 557], the 50% inhibitory concentration (IC50) is < 50 nM. On to `Cc1nnc([C@H]2CCCN2C(=O)Cc2cc(C(F)(F)F)ccc2F)n1Cc1ccc(Cl)cc1` [Compound 510], for which the IC50 was < 50 nM. Next, `Cc1nnc([C@H]2C[C@@H](O)CN2C(=O)NC2(c3ccc(C(F)(F)F)cc3)CC2)n1Cc1ccc(Cl)cc1` [Compound 387]: < 50 nM. Next, `Cc1nnc([C@H]2CCCN2C(=O)N[C@H]2CCc3ccccc32)n1Cc1ccc(Cl)cc1` [Compound 155]: 50 to 500 nM; `Cc1nnc([C@H]2C[C@H](O)CN2C(=O)NC2(c3ccc(C(F)(F)F)cc3)CC2)n1Cc1ccc(Cl)cc1` [Compound 436]: < 50 nM. Next, `Cc1cc(C(F)(F)F)ccc1NC(=O)N1CCC[C@@H]1c1nnc(C)n1Cc1ccc(Cl)cc1` [Compound 190]: < 50 nM; `Cc1nnc([C@H]2CCCN2C(=O)Nc2ccccc2C(F)(F)F)n1Cc1ccc(Cl)cc1` [Compound 146]: 50 to 500 nM; `Cc1nnc([C@H]2CCCN2C(=O)NC(C)C)n1Cc1ccc(Cl)cc1` [Compound 252]: 500 to 5000 nM. Turning to `Cc1nnc([C@H]2CCCN2C(=O)Nc2ccc(S(=O)(=O)N(C)C)cc2Cl)n1Cc1ccc(Cl)cc1` [Compound 451], the IC50 was < 50 nM.
